Data: ChEMBL document CHEMBL1201862, “PubChem BioAssay data set” (2004)
Active and inactive are the calls of the source. For most assays here, no stated cut-off is given here; in the data, actives have a measured EC50 and inactives only a lower limit.

Key:
[1] = luciferase reporter signal suppression in cells – H4 neuroglioma cells, luminescence, dose response (AID 1990); format: functional, cell-based
[2] = alpha-synuclein stem-loop luciferase translation blockers – H4 neuroglioma cells, luminescence, confirmation (AID 1988); format: functional, cell-based
[3] = Luminescence Cell-Based Dose Response HTS to Identify Inhibitors of 5'UTR Stem-Loop Driven Prion Protein mRNA Translation in H4 Neuroglioblastoma Cells. [Related pubchem assays: 1827 (Project Summary), 1813 (Primary HTS)]; format: functional
[4] = biological target: T1, Heat shock factor protein 1 (Mus musculus, UniProt P38532); test: decrease of HSF1-responsive luciferase luminescence – cell-based, NIH3T3, dose retest, confirmation (AID 2382); format: functional;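 further: NIH3T3 fibroblasts with HSF1-driven luciferase reporter stressed by proteasome inhibitor MG132; luminescence from HSF1-driven luciferase expression after 8 hours of MG132 stress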
T1 sequence (P38532 whole entry): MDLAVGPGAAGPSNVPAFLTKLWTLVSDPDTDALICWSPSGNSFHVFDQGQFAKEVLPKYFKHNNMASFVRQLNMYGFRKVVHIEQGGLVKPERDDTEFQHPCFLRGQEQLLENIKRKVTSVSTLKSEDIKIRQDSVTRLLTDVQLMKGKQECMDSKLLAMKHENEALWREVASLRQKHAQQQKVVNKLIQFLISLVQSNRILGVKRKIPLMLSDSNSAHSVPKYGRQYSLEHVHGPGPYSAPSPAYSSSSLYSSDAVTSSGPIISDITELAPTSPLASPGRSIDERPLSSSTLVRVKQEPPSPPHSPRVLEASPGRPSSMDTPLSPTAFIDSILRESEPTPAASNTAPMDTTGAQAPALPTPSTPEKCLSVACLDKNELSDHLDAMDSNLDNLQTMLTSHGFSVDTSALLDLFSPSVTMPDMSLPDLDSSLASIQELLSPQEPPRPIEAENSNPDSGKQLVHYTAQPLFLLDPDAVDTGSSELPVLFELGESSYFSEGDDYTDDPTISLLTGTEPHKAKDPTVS

Streptokinase A = biological target: T2, Streptokinase A (Streptococcus pyogenes serotype M1, UniProt P10520); test: viability-normalized secreted streptokinase activity reduction – plasminogen activation absorbance, OD405, dose response (AID 1914); format: functional, Streptococcus pyogenes M1 GAS;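 further: secreted streptokinase activity via plasminogen activation per viability signal from cell pellet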
T2 sequence (P10520 whole entry): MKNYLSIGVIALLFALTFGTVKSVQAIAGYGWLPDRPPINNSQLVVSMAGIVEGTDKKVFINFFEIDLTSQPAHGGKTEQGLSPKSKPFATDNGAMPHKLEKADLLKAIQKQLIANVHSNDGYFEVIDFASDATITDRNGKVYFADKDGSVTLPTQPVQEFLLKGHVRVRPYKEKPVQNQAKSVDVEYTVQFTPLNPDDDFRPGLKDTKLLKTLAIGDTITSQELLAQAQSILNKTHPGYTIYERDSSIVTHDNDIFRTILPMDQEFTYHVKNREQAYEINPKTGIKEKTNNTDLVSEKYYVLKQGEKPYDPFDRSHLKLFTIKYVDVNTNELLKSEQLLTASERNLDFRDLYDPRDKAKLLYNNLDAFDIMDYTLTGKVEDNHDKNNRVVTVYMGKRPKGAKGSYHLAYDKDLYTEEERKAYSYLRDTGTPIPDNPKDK

Streptococcus = test: GAS UMAA2166 growth inhibition – luminescence, BacTiterGlo, counter-screen for streptokinase expression inhibitor project, dose response (AID 1915); format: functional, organism-based;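 further: potency for reduction of bacterial viability or growth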
[5] = viability of uninfected HEp-2 cells – cell-based, HTS, cytotoxicity control for RSV inhibitor project, dose response (AID 2410); format: functional; conditions: human respiratory syncytial virus
[6] = system: Streptococcus sp. 'group A'; test: Streptococcus pyogenes SK(-)GAS viability under kanamycin – luminescence, BacTiterGlo, confirmation, counter-screen for streptokinase expression inhibitor project, dose response (AID 1900); format: functional, organism-based
INS1 = test: INS-1E survival protection against cytokine death – cell-based, luminescence, retest, dose response (AID 449756); format: functional; conditions: Rattus norvegicus;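 further: cell death triggered by IL-1 beta plus TNF-alpha plus IFN-gamma mixture; protective hits raise ATP signal compared with cytokine alone wells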

Row | Structure (SMILES) | EC50 [1] | EC50 [2] | EC50 [3] | EC50 [4] | other results
1 | O=C(c1ccccc1)c1nc2ccccc2n(CCCn2c(=O)c(C(=O)c3ccccc3)nc3ccccc32)c1=O | 33.3 µM (active) | > 120 µM (not active) | 34.5 µM (active) |  | 
2 | Cc1cc(C(=O)COC(=O)c2ccco2)c(C)n1Cc1ccco1 |  |  |  | < 0.16 µM (active) | 
3 | Cc1ccc(C)c2sc(N3CCN(C(=O)c4ccc([N+](=O)[O-])o4)CC3)nc12 |  |  |  |  | EC50 (Streptokinase A): 2.59 µM (active); EC50 (Streptococcus): 9.98 µM (active); CC50 [5]: 16.9 µM (active); EC50 [6]: 2.67 µM (active)
4 | CCC(C)(C)c1ccc(Oc2ccc(NC(=O)COC(=O)C3=COCCO3)cc2)cc1 | 6.08 µM (active) | 8.92 µM (active) | 10.1 µM (active) |  | 
5 | C#CCN(C#N)c1nc(NCC)nc(NC(C)C)n1 | 28.9 µM (active) | 16 µM (active) | > 120 µM (not active) |  | 
6 | COc1cccc(OC)c1CC1SC(=O)NC1=O (configuration not stated) |  |  |  |  | CC50 [5]: 40.2 µM (active)
7 | COc1ccc(CNc2nc3c(c(=O)[nH]c(=O)n3C)n2Cc2ccccc2C)cc1 |  |  |  | > 195 µM (not active) | 
8 | CCOC(=O)c1c(C)n(C)c2ccc(OC)c(NC(=O)CN3CCSCC3)c12 |  |  |  | > 195 µM (not active) | 
9 | CCOC(=O)c1c(C)[nH]c(C)c1S(=O)(=O)NCCc1cccs1 |  |  |  | > 195 µM (not active) | 
10 | CCOc1ccccc1CNC(=O)c1nn(C)c2c1CS(=O)(=O)c1ccccc1-2 | > 120 µM (not active) | > 120 µM (not active) | > 120 µM (not active) |  | 
11 | O=C1N[C@@H](Cc2ccccc2)C(=O)N2[C@@H]3N(S(=O)(=O)c4ccc(F)cc4)c4ccccc4[C@]3(Br)C[C@@H]12 |  |  |  |  | CC50 [5]: > 50 µM (active)
12 | Cc1ccc2c(c1)c(-c1ccccc1)nc1nnnn12 | 17.5 µM (active) | 120 µM (active) | > 120 µM (not active) |  | 
13 | COc1cccc(CC(=O)N[C@@H](CCSC)c2nc3ccccc3[nH]2)c1 |  |  |  | > 195 µM (not active) | 
14 | CCOC(=O)c1ccc(NC(=O)c2cc3c(C)nn(-c4ccccc4Cl)c3s2)s1 | 15.3 µM (active) | > 120 µM (not active) | > 120 µM (not active) |  | 
15 | COc1ccc2oc(C(=O)OCC(=O)N(C)CC(=O)Nc3ccc(C)cc3)c(C)c2c1 |  |  |  | > 195 µM (not active) | 
16 | COc1cc(NS(=O)(=O)c2csc(C(N)=O)c2)cc(OC)c1 |  |  |  | > 195 µM (not active) | 
17 | CCCCCCSc1cc(-c2nc3ccc(C)cn3c2NCc2ccccc2)ccc1OC |  |  |  |  | AC50 (INS1): 6.87 µM (active)
18 | COc1ccccc1CNC(=O)c1ccc2[nH]c3nc4ccccc4c-3nc2c1 |  |  |  |  | CC50 [5]: > 50 µM (active)
19 | C[C@@H]1CN([C@H](C)CO)C(=O)c2cc(NC(=O)Nc3ccc(C(F)(F)F)cc3)ccc2O[C@H]1CN(C)S(=O)(=O)c1cccs1 |  |  |  |  | AC50 (INS1): 27 µM (active)
20 | CCc1ccccc1Nc1nc2ccccc2n1CC | > 120 µM (not active) | 23 µM (active) | > 120 µM (not active) |  | 
21 | Cc1cc(C)n(CC(C)NC(=O)c2cc(COc3ccc(F)c(F)c3)on2)n1 (configuration not stated) |  |  |  | > 195 µM (not active) | 
22 | COc1ccc(-c2noc(CCCC(=O)NC3CCCC3)n2)cc1 | 11 µM (active) | 13.3 µM (active) | 14.1 µM (active) |  | 
23 | O=C(c1ccco1)N1N=C(c2ccc(Br)cc2)CC1c1ccco1 (configuration not stated) |  |  |  |  | AC50 (INS1): 19.8 µM (active)
